# Laboratory results taken from PubChem BioAssay AID488800 (Sanford-Burnham Center for Chemical Genomics, 2010).
# Activity calls are given as the source filed them. The limit is not given here; nearly all actives have IC50 up to about 10 µM.
# Target: yeast expressing human caspase-1/ASC, counter-screen read-out
# Assay: interleukin-1beta converting enzyme-PYCARD signal blockade in yeast, concentration-response testing, counterassay for cryopyrin inhibitor project (AID 488800)
row,SMILES,IC50
1,CCCCCNC(=O)C(=O)C1C(=O)Nc2ccccc21 (stereo not drawn),1.78 µM
2,O=C(Nc1scc(-c2ccccc2)c1C(=O)O)c1ccc(F)cc1,4.03 µM
3,CCCCCCCCCn1c2c(c(=N)c3c1CCC3)CCC2,6.26 µM
4,CC(=O)Oc1c(I)cc(I)cc1C(=O)Nc1ccc(Cl)cc1,0.813 µM
5,O=C(NCCC1=CCCCC1)c1c(O)nc2sccn2c1=O,2.24 µM
6,COc1c(OC(C)=O)c(=O)n2c3ccccc3c3ccnc1c32,0.665 µM
7,O=C(Nc1cccc(Br)c1)c1cc2ccccc2o1,3.37 µM
8,O=C(Nc1ccc(Cl)cc1)Nc1ccc(Cl)c(Cl)c1,0.805 µM
9,COc1ccc(CNC(=O)c2c(C)oc3c2C(=O)c2ccccc2C3=O)cc1,3.11 µM
10,O=c1c2cc(Cl)ccc2nc(-c2ccc([N+](=O)[O-])cc2)n1O,2.7 µM
11,O=C(CCS(=O)(=O)c1ccccc1)N(CCCN1CCOCC1)c1nc2c(F)cccc2s1,1.05 µM
12,O=c1c2ccc(Cl)cc2nc(-c2cccc(C(F)(F)F)c2)n1O,2.67 µM
13,CCOC(=O)N1C(=O)C2(CCCCC2)N(c2ccccc2Cl)C1=S,10.6 µM
14,Cc1onc(-c2ccccc2Cl)c1C(=O)N1C=CC(C(F)(F)F)=NCC1,6.51 µM
15,N#Cc1ccc(NC(=O)Nc2ccc(Cl)cc2)cc1,2.98 µM
16,CCCCCCCCn1c2c(c(=N)c3ccccc31)CCC2,8.75 µM
17,CCC1Nc2ncnc(N3CCN(c4ccccn4)CC3)c2N(Cc2ccc(Br)cc2)C1=O (stereo not drawn),3.3 µM
18,O=C(NNC(=S)NC(=O)c1ccc(Br)cc1)c1ccc([N+](=O)[O-])cc1,> 100 µM (inactive)
19,O=C(Nc1cccc(Cl)c1)c1cc(N=Nc2ccc([N+](=O)[O-])cc2Cl)ccc1O,0.566 µM
20,CCN(CC)c1ccc2nc3ccc(N)cc3[n+](-c3ccccc3)c2c1,1.08 µM
21,CCOC(=O)c1ccc2c(c1)nc(COc1ccc(OC)cc1)n2CC,9.83 µM
22,CCC1Nc2ncnc(N3CCN(c4ccccn4)CC3)c2N(Cc2ccc(Cl)cc2)C1=O (stereo not drawn),3.32 µM
23,O=C(Nc1cccc(Cl)c1)c1cnn2cccnc12,4.35 µM
24,c1ccc(C2Nc3ccccc3C3OCCCC23)cc1 (stereo not drawn),0.881 µM
25,COc1cc(CNCCc2ccccc2)ccc1OCc1ccc(Cl)nc1,4.86 µM
26,Cc1cccc(C(=O)O/N=C(\N)Cc2cccc3ccccc23)c1,1.72 µM
27,COc1ccc(NC(=O)C#Cc2ccccc2)cc1,1.44 µM

row,SMILES,IC50
1,Oc1c(/C=N/c2ccccn2)sc2ccccc12,3.8 µM
2,CN(CCOc1ccccc1)c1ccc(S(=O)(=O)N2CCCCC2)cn1,5.1 µM
3,CC(C)NC(=O)c1c(O)c2ccccc2[nH]c1=O,1.19 µM
4,O=c1c2cc(Br)ccc2nc(-c2ccc([N+](=O)[O-])cc2)n1O,2.39 µM
5,CCN(CC)c1ccc2nc3ccccc3[n+](CC)c2c1,6.23 µM
6,Cn1c(=O)c(C(=O)Nc2ncccn2)c(O)c2ccccc21,3.18 µM
7,CCCOc1ccc(C(=O)NNC(=S)NC(=O)c2cccs2)cc1,2.93 µM
8,CCN1/C(=C/C=C/c2oc3ccc(-c4ccccc4)cc3[n+]2CC)Oc2ccc(-c3ccccc3)cc21,8.93 µM
9,CCSc1nsc(NC(=O)Nc2cccc(F)c2)n1,1.22 µM
10,CC(=O)N(/N=C1\Sc2ccccc2C1=O)c1ccccc1C,4.55 µM
11,CCCCCC(=O)N1CCN(CCN=CC2=C(O)CC(c3ccco3)CC2=O)CC1 (stereo not drawn),8.62 µM
12,Cc1csc2nc(O)c(C(=O)NCCC3=CCCCC3)c(=O)n12,2.33 µM
13,Cc1ccc(NC(=O)c2nc(S(=O)(=O)Cc3ccccc3)ncc2Cl)cc1,1.67 µM
14,O=C(NC(=S)NNC(=O)c1ccccc1O)c1ccc(F)cc1,1.82 µM
15,Nc1ccc(Oc2cc(N)cc(Oc3ccccc3)c2)cc1,4.58 µM
16,c1ccc(Sc2cccc3ccccc23)c(CNC2=NCCN2)c1,7.62 µM
17,COc1cccc(NC(=O)c2ccccc2)c1,4.54 µM
18,C=CCc1c(C)nc(C)nc1N/N=C/c1ccccc1O,9.37 µM
19,CCCC1CCC(c2ccc(OCC)cc2)=CC1=O (stereo not drawn),4.85 µM
20,Brc1ccc(-n2cnc(-c3ccccc3)c2)cc1,10.1 µM
21,CN(CC(=O)N1CCc2ccccc2C1)c1ccccc1,2.22 µM
22,C[C@@H]1C[C@@H]2O[C@H]2/C=C\C=C\C(=O)Cc2c(Cl)c(O)cc(O)c2C(=O)O1,5.66 µM
23,Cn1c(=O)c(C(=O)NNC(=O)c2ccccc2F)c(O)c2ccccc21,1.56 µM
24,CC(N)C(=O)OC(C)(C)Cc1ccc(Cl)cc1 (stereo not drawn),4.3 µM
25,O=C(NCCCc1ccccc1)c1c(O)nc2sccn2c1=O,2.42 µM
26,O=c1cc(-c2ccccc2Cl)oc2ccc([N+](=O)[O-])c(O)c12,1.89 µM
